Test results taken from BindingDB's records for doi:10.1021/jm00124a025 (Smith Kline & French Laboratories, 1989).

Target: Vasopressin V2 receptor (Canis lupus familiaris)
Assay: Binding affinity of compound towards Vasopressin receptor by binding [3H]LVP to dog renal medullary preparation.

| SMILES | Ki |
| --- | --- |
| CCOc1ccc(C[C@@H]2NC(=O)CC3(CCC(C)CC3)SSC[C@H](C(=O)N[C@@H](CCCN=C(N)N)C(=O)N[C@@H](CCCN=C(N)N)C(N)=O)NC(=O)[C@H](CC(N)=O)NC(=O)[C@H](C(C)C)NC(=O)[C@H](Cc3ccccc3)NC2=O)cc1 (some centres not stated) [19-Benzyl-13-carbamoylmethyl-22-(4-ethoxy-benzyl)-16-isopropyl-3-methyl-12,15,18,21,24-pentaoxo-7,8-dithia-11,14,17,20,23-pentaaza-spiro[5.19]pentacosane-10-carboxylic acid [1-(1-carbamoyl-4-guanidino-butylcarbamoyl)-4-guanidino-butyl]-amide] | 0.7 nM |
| CCOc1ccc(C[C@@H]2NC(=O)CC3(CCCCC3)SSC[C@H](C(=O)N[C@@H](CCCN=C(N)N)C(=O)N[C@@H](CCCN=C(N)N)C(N)=O)NC(=O)[C@@H](CC(N)=O)NC(=O)[C@H](C(C)C)NC(=O)[C@@H](Cc3ccccc3)NC2=O)cc1 [19-Benzyl-13-carbamoylmethyl-22-(4-ethoxy-benzyl)-16-isopropyl-12,15,18,21,24-pentaoxo-7,8-dithia-11,14,17,20,23-pentaaza-spiro[5.19]pentacosane-10-carboxylic acid [1-(1-carbamoyl-4-guanidino-butylcarbamoyl)-4-guanidino-butyl]-amide] | 0.5 nM |
